Measured values as given in ChEMBL document CHEMBL4725232, “Synthesis and biological activity of new bisbenzofuran-imidazolium salts” (Bioorg Med Chem Lett, 2020).

tested on: HL-60; assay: Antiproliferative activity against human HL60 cells by MTS assay; format: functional, cell-based

SMILES	IC50
Cc1n(CC=C(c2cc3ccccc3o2)c2cc3ccccc3o2)c2ccccc2[n+]1CC(=O)c1ccc(Br)cc1	2430 nM
C(Cn1cnc2ccccc21)=C(c1cc2ccccc2o1)c1cc2ccccc2o1	> 20000 nM
Cc1cc2ncn(CC=C(c3cc4ccccc4o3)c3cc4ccccc4o3)c2cc1C	> 20000 nM
O=C(C[n+]1cn(CC=C(c2cc3ccccc3o2)c2cc3ccccc3o2)c2ccccc21)c1ccc(Br)cc1	1730 nM
Cc1n(CC=C(c2cc3ccccc3o2)c2cc3ccccc3o2)c2ccccc2[n+]1CC(=O)c1ccc(-c2ccccc2)cc1	1410 nM
O=C(C[n+]1ccn(CC=C(c2cc3ccccc3o2)c2cc3ccccc3o2)c1)c1ccc2ccccc2c1	7730 nM
O=C(C[n+]1cn(CC=C(c2cc3ccccc3o2)c2cc3ccccc3o2)c2ccccc21)c1ccccc1	1440 nM
Cc1cc2c(cc1C)[n+](CC(=O)c1ccc3ccccc3c1)cn2CC=C(c1cc2ccccc2o1)c1cc2ccccc2o1	3140 nM
Cc1n(CC=C(c2cc3ccccc3o2)c2cc3ccccc3o2)c2ccccc2[n+]1CC(=O)c1ccc2ccccc2c1	1580 nM
COc1ccc(C(=O)C[n+]2cn(CC=C(c3cc4ccccc4o3)c3cc4ccccc4o3)c3ccccc32)cc1	1190 nM
COc1ccc(C(=O)C[n+]2c(C)n(CC=C(c3cc4ccccc4o3)c3cc4ccccc4o3)c3ccccc32)cc1	1110 nM
Cc1cc2c(cc1C)[n+](CC(=O)c1ccccc1)cn2CC=C(c1cc2ccccc2o1)c1cc2ccccc2o1	4330 nM

tested on: SMMC-7721; assay: Antiproliferative activity against human SMMC7721 by MTS assay; format: functional, cell-based

SMILES	IC50
Cc1n(CC=C(c2cc3ccccc3o2)c2cc3ccccc3o2)c2ccccc2[n+]1CC(=O)c1ccc(Br)cc1	6840 nM
C(Cn1cnc2ccccc21)=C(c1cc2ccccc2o1)c1cc2ccccc2o1	> 20000 nM
Cc1cc2ncn(CC=C(c3cc4ccccc4o3)c3cc4ccccc4o3)c2cc1C	> 20000 nM
O=C(C[n+]1cn(CC=C(c2cc3ccccc3o2)c2cc3ccccc3o2)c2ccccc21)c1ccc(Br)cc1	6050 nM
Cc1n(CC=C(c2cc3ccccc3o2)c2cc3ccccc3o2)c2ccccc2[n+]1CC(=O)c1ccc(-c2ccccc2)cc1	1670 nM
O=C(C[n+]1ccn(CC=C(c2cc3ccccc3o2)c2cc3ccccc3o2)c1)c1ccc2ccccc2c1	> 20000 nM
O=C(C[n+]1cn(CC=C(c2cc3ccccc3o2)c2cc3ccccc3o2)c2ccccc21)c1ccccc1	3930 nM
Cc1cc2c(cc1C)[n+](CC(=O)c1ccc3ccccc3c1)cn2CC=C(c1cc2ccccc2o1)c1cc2ccccc2o1	5900 nM
Cc1n(CC=C(c2cc3ccccc3o2)c2cc3ccccc3o2)c2ccccc2[n+]1CC(=O)c1ccc2ccccc2c1	1510 nM
COc1ccc(C(=O)C[n+]2cn(CC=C(c3cc4ccccc4o3)c3cc4ccccc4o3)c3ccccc32)cc1	1530 nM
COc1ccc(C(=O)C[n+]2c(C)n(CC=C(c3cc4ccccc4o3)c3cc4ccccc4o3)c3ccccc32)cc1	1380 nM
Cc1cc2c(cc1C)[n+](CC(=O)c1ccccc1)cn2CC=C(c1cc2ccccc2o1)c1cc2ccccc2o1	6380 nM

tested on: A549; assay: Antiproliferative activity against human […] cells by MTS assay; format: functional, cell-based

SMILES	IC50
Cc1n(CC=C(c2cc3ccccc3o2)c2cc3ccccc3o2)c2ccccc2[n+]1CC(=O)c1ccc(Br)cc1	7430 nM
C(Cn1cnc2ccccc21)=C(c1cc2ccccc2o1)c1cc2ccccc2o1	> 20000 nM
Cc1cc2ncn(CC=C(c3cc4ccccc4o3)c3cc4ccccc4o3)c2cc1C	> 20000 nM
O=C(C[n+]1cn(CC=C(c2cc3ccccc3o2)c2cc3ccccc3o2)c2ccccc21)c1ccc(Br)cc1	6460 nM
Cc1n(CC=C(c2cc3ccccc3o2)c2cc3ccccc3o2)c2ccccc2[n+]1CC(=O)c1ccc(-c2ccccc2)cc1	1960 nM
O=C(C[n+]1ccn(CC=C(c2cc3ccccc3o2)c2cc3ccccc3o2)c1)c1ccc2ccccc2c1	> 20000 nM
O=C(C[n+]1cn(CC=C(c2cc3ccccc3o2)c2cc3ccccc3o2)c2ccccc21)c1ccccc1	6020 nM
Cc1cc2c(cc1C)[n+](CC(=O)c1ccc3ccccc3c1)cn2CC=C(c1cc2ccccc2o1)c1cc2ccccc2o1	5340 nM
Cc1n(CC=C(c2cc3ccccc3o2)c2cc3ccccc3o2)c2ccccc2[n+]1CC(=O)c1ccc2ccccc2c1	1580 nM
COc1ccc(C(=O)C[n+]2cn(CC=C(c3cc4ccccc4o3)c3cc4ccccc4o3)c3ccccc32)cc1	2320 nM
COc1ccc(C(=O)C[n+]2c(C)n(CC=C(c3cc4ccccc4o3)c3cc4ccccc4o3)c3ccccc32)cc1	1470 nM
Cc1cc2c(cc1C)[n+](CC(=O)c1ccccc1)cn2CC=C(c1cc2ccccc2o1)c1cc2ccccc2o1	7080 nM

tested on: MCF7; assay: Antiproliferative activity against human MCF7 cells by MTS assay; format: functional, cell-based

SMILES	IC50
Cc1n(CC=C(c2cc3ccccc3o2)c2cc3ccccc3o2)c2ccccc2[n+]1CC(=O)c1ccc(Br)cc1	1720 nM
C(Cn1cnc2ccccc21)=C(c1cc2ccccc2o1)c1cc2ccccc2o1	> 20000 nM
Cc1cc2ncn(CC=C(c3cc4ccccc4o3)c3cc4ccccc4o3)c2cc1C	> 20000 nM
O=C(C[n+]1cn(CC=C(c2cc3ccccc3o2)c2cc3ccccc3o2)c2ccccc21)c1ccc(Br)cc1	1630 nM
Cc1n(CC=C(c2cc3ccccc3o2)c2cc3ccccc3o2)c2ccccc2[n+]1CC(=O)c1ccc(-c2ccccc2)cc1	1230 nM
O=C(C[n+]1ccn(CC=C(c2cc3ccccc3o2)c2cc3ccccc3o2)c1)c1ccc2ccccc2c1	7830 nM
O=C(C[n+]1cn(CC=C(c2cc3ccccc3o2)c2cc3ccccc3o2)c2ccccc21)c1ccccc1	1560 nM
Cc1cc2c(cc1C)[n+](CC(=O)c1ccc3ccccc3c1)cn2CC=C(c1cc2ccccc2o1)c1cc2ccccc2o1	2380 nM
Cc1n(CC=C(c2cc3ccccc3o2)c2cc3ccccc3o2)c2ccccc2[n+]1CC(=O)c1ccc2ccccc2c1	970 nM
COc1ccc(C(=O)C[n+]2cn(CC=C(c3cc4ccccc4o3)c3cc4ccccc4o3)c3ccccc32)cc1	1020 nM
COc1ccc(C(=O)C[n+]2c(C)n(CC=C(c3cc4ccccc4o3)c3cc4ccccc4o3)c3ccccc32)cc1	640 nM
Cc1cc2c(cc1C)[n+](CC(=O)c1ccccc1)cn2CC=C(c1cc2ccccc2o1)c1cc2ccccc2o1	3420 nM

tested on: SW480; assay: Antiproliferative activity against human SW480 cells by MTS assay; format: functional, cell-based

SMILES	IC50
Cc1n(CC=C(c2cc3ccccc3o2)c2cc3ccccc3o2)c2ccccc2[n+]1CC(=O)c1ccc(Br)cc1	800 nM
C(Cn1cnc2ccccc21)=C(c1cc2ccccc2o1)c1cc2ccccc2o1	> 20000 nM
Cc1cc2ncn(CC=C(c3cc4ccccc4o3)c3cc4ccccc4o3)c2cc1C	> 20000 nM
O=C(C[n+]1cn(CC=C(c2cc3ccccc3o2)c2cc3ccccc3o2)c2ccccc21)c1ccc(Br)cc1	1430 nM
Cc1n(CC=C(c2cc3ccccc3o2)c2cc3ccccc3o2)c2ccccc2[n+]1CC(=O)c1ccc(-c2ccccc2)cc1	1480 nM
O=C(C[n+]1ccn(CC=C(c2cc3ccccc3o2)c2cc3ccccc3o2)c1)c1ccc2ccccc2c1	6970 nM
O=C(C[n+]1cn(CC=C(c2cc3ccccc3o2)c2cc3ccccc3o2)c2ccccc21)c1ccccc1	1920 nM
Cc1cc2c(cc1C)[n+](CC(=O)c1ccc3ccccc3c1)cn2CC=C(c1cc2ccccc2o1)c1cc2ccccc2o1	2360 nM
Cc1n(CC=C(c2cc3ccccc3o2)c2cc3ccccc3o2)c2ccccc2[n+]1CC(=O)c1ccc2ccccc2c1	1540 nM
COc1ccc(C(=O)C[n+]2cn(CC=C(c3cc4ccccc4o3)c3cc4ccccc4o3)c3ccccc32)cc1	1470 nM
COc1ccc(C(=O)C[n+]2c(C)n(CC=C(c3cc4ccccc4o3)c3cc4ccccc4o3)c3ccccc32)cc1	880 nM
Cc1cc2c(cc1C)[n+](CC(=O)c1ccccc1)cn2CC=C(c1cc2ccccc2o1)c1cc2ccccc2o1	4300 nM
